#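 Exposure lasted 48 hours, with cells grown in 96-well plates and compounds tested at five concentrations. The concentration for 50% growth inhibition is given as GI50.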 Calls of active or inactive are those of the source. Rule as the data show it: active = GI50 up to about 1.1 µM and inactive = higher.
# Legend:
# Test in all cases: NCI anticancer screen, dose series, 48 h
# NCI-H226 = test system: NCI-H226
# PC-3 = test system: PC-3
# OVCAR-4 = test system: OVCAR-4
# SN12C = test system: SN12C
# SW-620 = test system: SW-620
# SNB-75 = test system: SNB-75
# CAKI-1 = test system: CAKI-1
# SF-268 = test system: SF-268
# ACHN = test system: ACHN
# HL-60 = test system: HL-60
# TK-10 = test system: TK-10
# SK-OV-3 = test system: SK-OV-3
# MOLT-4 = test system: MOLT-4
# HCC 2998 = test system: HCC 2998
# HOP-92 = test system: HOP-92
# HOP-62 = test system: HOP-62
# SR = test system: SR
# RXF 393 = test system: RXF 393
# SF-295 = test system: SF-295
# OVCAR-3 = test system: OVCAR-3
SMILES,GI50 (NCI-H226),GI50 (PC-3),GI50 (OVCAR-4),GI50 (SN12C),GI50 (SW-620),GI50 (SNB-75),GI50 (CAKI-1),GI50 (SF-268),GI50 (ACHN),GI50 (HL-60),GI50 (TK-10),GI50 (SK-OV-3),GI50 (MOLT-4),GI50 (HCC 2998),GI50 (HOP-92),GI50 (HOP-62),GI50 (SR),GI50 (RXF 393),GI50 (SF-295),GI50 (OVCAR-3)
C=C1C(O)C2(O)OCC34C(CC5C(C)=CC(=O)C(O)C5(C)C23)OC(=O)C(OC(=O)C/C=C(\C)CCCCC)C14 (stereo not given),0.0144 µM (active),< 0.001 µM (active),0.0125 µM (active),0.0199 µM (active),0.0153 µM (active),0.0153 µM (active),0.0427 µM (active),0.0152 µM (active),< 0.001 µM (active),0.0125 µM (active),0.00177 µM (active),0.0133 µM (active),0.0125 µM (active),0.0136 µM (active),0.0147 µM (active),0.0148 µM (active),< 0.01 µM (active),0.0152 µM (active),0.0125 µM (active),
CCCCCCCCCCCCCC[C@@H](O)[C@H]1CC[C@H]([C@H]2CC[C@H]([C@H](O)CCCCCC[C@@H](O)CC3=C[C@H](C)OC3=O)O2)O1,> 25 µM (inactive),> 25 µM (inactive),> 25 µM (inactive),2.2 µM (inactive),> 25 µM (inactive),> 25 µM (inactive),> 25 µM (inactive),> 25 µM (inactive),> 25 µM (inactive),2.22 µM (inactive),> 25 µM (inactive),> 25 µM (inactive),,> 25 µM (inactive),3.34 µM (inactive),> 25 µM (inactive),1.03 µM (active),> 25 µM (inactive),> 25 µM (inactive),> 25 µM (inactive)
COC(=O)c1nc2n(n1)-c1ccccc1C(=O)N(Cc1ccccc1)C2,> 100 µM (inactive),> 100 µM (inactive),> 100 µM (inactive),> 100 µM (inactive),> 100 µM (inactive),,> 100 µM (inactive),> 100 µM (inactive),> 100 µM (inactive),> 100 µM (inactive),> 100 µM (inactive),> 100 µM (inactive),> 100 µM (inactive),40.4 µM (inactive),> 100 µM (inactive),> 100 µM (inactive),> 100 µM (inactive),> 100 µM (inactive),> 100 µM (inactive),> 100 µM (inactive)
Nc1nc(N)c2cc(CNc3ccc(C(=O)NC(CC(=O)O)C(=O)O)c(Cl)c3)ccc2n1 (stereo not given),> 21.6 µM (inactive),10.1 µM (inactive),153 µM (inactive),0.278 µM (active),< 0.0103 µM (active),> 20.8 µM (inactive),0.0877 µM (active),0.0582 µM (active),0.0253 µM (active),14.3 µM (inactive),0.0803 µM (active),6.82 µM (inactive),0.0175 µM (active),1.43 µM (inactive),> 87.5 µM (inactive),,0.05 µM (active),61 µM (inactive),0.0698 µM (active),0.8 µM (active)
COP(=O)(OC)C(NC=O)P(=O)(OC)OC,> 100 µM (inactive),> 100 µM (inactive),> 100 µM (inactive),> 100 µM (inactive),> 100 µM (inactive),,> 100 µM (inactive),> 100 µM (inactive),> 100 µM (inactive),> 100 µM (inactive),> 100 µM (inactive),> 100 µM (inactive),> 100 µM (inactive),> 100 µM (inactive),> 100 µM (inactive),> 100 µM (inactive),> 100 µM (inactive),> 100 µM (inactive),> 100 µM (inactive),> 100 µM (inactive)
O=C/C(=C(/Br)I)c1ccccc1,9.64 µM (inactive),6.35 µM (inactive),3.86 µM (inactive),1.9 µM (inactive),1.15 µM (inactive),5.45 µM (inactive),2.14 µM (inactive),2.3 µM (inactive),3.1 µM (inactive),0.352 µM (active),6.12 µM (inactive),14.5 µM (inactive),0.597 µM (active),,2.28 µM (inactive),15.7 µM (inactive),0.448 µM (active),2.71 µM (inactive),5.77 µM (inactive),2.74 µM (inactive)
CC1=CCC([C@@](C)(O)CCCC(C)(C)N=C=S)CC1 (stereo not given in full),17.2 µM (inactive),18.6 µM (inactive),16.5 µM (inactive),18.1 µM (inactive),18.3 µM (inactive),17.8 µM (inactive),,16.8 µM (inactive),16.8 µM (inactive),21.8 µM (inactive),22 µM (inactive),17.9 µM (inactive),21.5 µM (inactive),18.2 µM (inactive),18.5 µM (inactive),22.6 µM (inactive),19.8 µM (inactive),13.7 µM (inactive),19.4 µM (inactive),18.4 µM (inactive)
CC[C@H]1C=CCC[C@@]2(C[C@@H]3CC[C@H]4[C@@H](C(=O)OCCCCCCCCCCCCCCCC(=O)N(CCCNC(C)=O)C[C@H](CCNC(C)=O)OC(C)=O)[C@@]5(CCC[C@@H](C)O5)NC(=[N+]34)N2)O1,1.41 µM (inactive),1.07 µM (active),1.4 µM (inactive),2.01 µM (inactive),1.53 µM (inactive),,2.22 µM (inactive),1.66 µM (inactive),1.89 µM (inactive),1.14 µM (inactive),1.56 µM (inactive),1.74 µM (inactive),1.23 µM (inactive),1.26 µM (inactive),1.11 µM (active),2 µM (inactive),1.56 µM (inactive),1.79 µM (inactive),1.86 µM (inactive),0.787 µM (active)
CC(C)=CCNc1ncnc2[nH]cnc12,90.2 µM (inactive),> 100 µM (inactive),> 100 µM (inactive),> 100 µM (inactive),> 100 µM (inactive),> 100 µM (inactive),> 100 µM (inactive),> 100 µM (inactive),> 100 µM (inactive),> 100 µM (inactive),> 100 µM (inactive),> 100 µM (inactive),> 100 µM (inactive),,> 100 µM (inactive),> 100 µM (inactive),> 100 µM (inactive),> 100 µM (inactive),> 100 µM (inactive),> 100 µM (inactive)
COc1cc2c(cc1OCCCCOc1cc3nc(C)nc(Cl)c3cc1OC)N=C[C@@H]1CCCN1C2=O,1.85 µM (inactive),3.11 µM (inactive),2.84 µM (inactive),1.93 µM (inactive),2.54 µM (inactive),1.46 µM (inactive),2.38 µM (inactive),2.74 µM (inactive),1.94 µM (inactive),2.48 µM (inactive),2.34 µM (inactive),30.4 µM (inactive),1.7 µM (inactive),,2.02 µM (inactive),2.67 µM (inactive),0.57 µM (active),2.12 µM (inactive),2.43 µM (inactive),2.06 µM (inactive)
